Assay results from US7994360B2, “Benzofuran compounds” (XTL Biopharmaceuticals Ltd., priority 2005, dated 2011).
pIC50: −log10 of the molar value.

Experiments:
[1] = system: HCV Replicon (HCV IRES driven luciferase reporter) in Huh-Luc-Neo cells; experiment: HCV Replicon Luciferase Assay; conditions: Hepatitis C virus, 48 h, read-out: Luciferase IC50
[2] = system: HCV Replicon (HCV RNA) in Huh-Luc-Neo cells; experiment: HCV Replicon RNA Assay (Taqman quantitative PCR of HCV RNA); assay type: cell-based; conditions: Hepatitis C virus, compound added day 0 and day 1, HCV RNA by quantitative PCR, no unit printed in table (text gives hit threshold in μM)
Description: Day 2, RNA Isolation and cDNA Synthesis: The cells are washed with 1× Phosphate Buffered Saline (PBS) once.

Huh-Luc-Neo cells = experiment: CellTiter-Glo Cell Viability Assay; assay type: cell-based, human; conditions: inhibition of cell viability; for Toxicity % Inhibition at 50uM (2 doses): conditions identical to Replicon RNA assay; for Toxicity % Inhibition at 100 uM (1 dose): conditions identical to Luciferase assay (48 h)

| Compound | pIC50 [1] | IC50 [2] [µM] | Toxicity % Inhibition at 50uM (2 doses) (Huh-Luc-Neo cells) [%] | Toxicity % Inhibition at 100 uM (1 dose) (Huh-Luc-Neo cells) [%] |
| --- | --- | --- | --- | --- |
| CC(=O)c1ccc(-c2c(-c3ccccc3Cl)oc3c(C#Cc4ccccc4Cl)cc(CO)cc23)cc1 [VQ–36165] | 5.29 | 1.31 | 5.7 | 10.5 |
| CC(=O)c1ccc(-c2c(-c3ccccc3C(F)(F)F)oc3c(C#Cc4ccccc4Cl)cc(CO)cc23)cc1 [VQ–36167] | 4.91 | 1.61 | 20.2 | 33.2 |
